The structures appear in SMILES notation.

The data set can be described thus: Pharmacokinetic testing of olopatadine 0.6% nasal spray in clinical trials (plasma level by HPLC). Type of data set: in vivo. To be noted: human subjects, formulation containing 0.6% olopatadine, two sprays/nostril twice per day, intranasal.

Regarding `CN(C)CC/C=C1/c2ccccc2COc2ccc(CC(=O)O)cc21` [olopatadine, Z-11-(3-dimethylaminopropylidene)-6,11-dihydrodibenz[b,e]oxepine-2-acetic acid], the “time post-dose at which peak plasma concentration was measured” value fell in the range of 0.5 to 2 h. For the same molecule, under “plasma, high performance liquid chromatography”, the “peak plasma concentration of olopatadine (C.), observed range” value fell in the range of 14.4 to 35.3 ng/mL. For the same molecule, the “peak plasma concentration of olopatadine (C.), mean” value (plasma, mean +/- spread) was 23.3 ± 6.1 ng/mL.

The values above are taken from US20140227326A1, “METHOD OF DELIVERING NASAL SPRAY” (priority 2004, published 2014).
